Measured values reported in patent publication US20250144088A1, “INHALABLE FORMULATION FOR USE IN THE TREATMENT OF BACTERIAL LUNG INFECTIONS” (priority 2022, published 2025).
Where two headings read alike, the source gives them in different places.

Assays:
[1] = system: Mycobacterium tuberculosis strains; details: cited from earlier work
J774 cells = assay: High content analysis of drug-induced phospholipidosis (DIPL) and cytotoxicity in macrophage-like cells; assay type: cell-based; details: mouse, 48 h
Source text: FIG. 1: A macrophage-like cell line (J774 cells) were used to screen whether three different nanocarrier formulations differing in their lipid compositions (1: DOPC/Chol, 2: DMPC/DMPG or 3: pegylated DOPC/Chol) i) are cytotoxic to this cell type and protect the cells from BDQ-induced DIPL. A heat map was used to depict the number of cells with DIPL-induced abnormalities (first two left-hand columns) and cytotoxicity markers (columns on the right). Black fields indicate that <10% of the cells in the treatment groups were abnormal, whereas grey-to-white colored fields denote an increasing proportion of cells with abnormalities. The heatmap at the top depicts the positive control group for DIPL, which consisted of four known CADs (amiodarone, amytryptiline, azithromycin, and BDQ) administered to the cells in solution (no formulation). […] The numbers on the left-hand side of each heatmap denote the CAD dose (μM) and the total lipid concentration (μg/mL) added to each well. The values depicted the mean % abnormal cells from six replicate formulations tested in four different cell passage numbers.
High content analysis was initially used as a rapid screening tool to evaluate interactions between lipid-based nanocarrier (TargoSphere©) formulations applied as liquid dispersions and macrophage cells. […] Two of the formulations (DOPC/Chol and DMPG/DMPC) contained Fuc-C4-Chol as a C-type lectin receptor targeting ligand (+CLR). Four concentrations ranging from 15-700 μg/mL (total solid content) were tested. After an incubation time of 48 h three assays with different fluorescence markers were performed. […]
For high content analysis, images were documented using the Cytation™ 5 Cell Imaging Multi-Mode Reader (BioTek, Bad Friedrichshall, Germany) with a 40× objective in standard 2D imaging mode. For each well 6 pictures were analysed using the Gen5 software (BioTek, Bad Friedrichshall, Germany). […] For both dyes the fluorescence intensity values were measured. […] Area and size of the vacuoles were identified and measured based on negative staining. […]

[2] = In vivo pharmacokinetics, current example (i.v., i.n., p.o.), healthy Balb-c mice
Method: Values represent the mean of n=6 animals per time point.
After 0.5, 3, 24, 48, 72 and 96 hours, the animals were sacrificed and samples were taken from the blood plasma, lung tissues, lung epithelial fluid and cellular fraction of the lung epithelial fluid. […]

[3] = p.o. 25 mg/kg, HP-β-CD solution, Irwin, 2016, male Balb/c mice, cited from earlier work
[4] = mouse, in vivo, po, 30 mg/kg; cited from earlier work
[5] = Balb-c, mouse, in vivo, po, 25 mg/kg

In the case of `CNCCC(O)(c1cccc2ccccc12)C(c1ccccc1)c1cc2cc(Br)ccc2nc1OC` (stereo not drawn) [M2, N-desmethyl-BDQ], the “attenuated activity against Mycobacterium tuberculosis strains compared to BDQ” value [1] is given as 3- to 5 fold.
With `CCCCc1oc2ccccc2c1C(=O)c1cc(I)c(OCCN(CC)CC)c(I)c1` [amiodarone] the “cells exhibiting abnormal phospholipid accumulation” value (J774 cells) was about 100%.
In the case of `COc1nc2ccc(Br)cc2cc1[C@@H](c1ccccc1)[C@@](O)(CCN(C)C)c1cccc2ccccc12` [BDQ, bedaquiline], the tmax ([2]; BDQ in plasma, p.o. 25 mg/kg, drug suspension, current example) is reported as 0.5 h, the Kp ([2]; Balb-c, mouse, in vivo) is reported as 62 and the “increase in lung exposure after intrapulmonary administration” value ([2]; Balb-c, mouse, in vivo) is reported as 3 fold. For the same compound, the Kp ([2]; Balb-c, mouse, in vivo, iv) was 15, the Kp ([2]; Balb-c, mouse, in vivo, po) was 11 and the Tmax [2, 5] was 3 h. For the same compound, the tmax [2, 5] was 24 h, the tmax ([3]; BDQ in lung tissue) was 8 h and the Cmax ([3]; BDQ in plasma) was 2900 ng/mL. The tmax ([3]; BDQ in plasma) was 0.5 h, the tmax [4] was 24 h and the “cells exhibiting abnormal phospholipid accumulation” value (J774 cells) was about 100%.
In the case of `CC[C@H]1OC(=O)[C@H](C)[C@@H](O[C@H]2C[C@@](C)(OC)[C@@H](O)[C@H](C)O2)[C@H](C)[C@@H](O[C@@H]2O[C@H](C)C[C@H](N(C)C)[C@H]2O)[C@](C)(O)C[C@@H](C)CN(C)[C@H](C)[C@@H](O)[C@]1(C)O` [azithromycin], the “cells exhibiting abnormal phospholipid accumulation” value (J774 cells) is reported as about 100%.
